SMILES strings stand for the structures. Structures can show the parent of a compound that is named as a salt.

We go through 18 compounds from patent US20050090505A1, “Methods of reducing risk of infection from pathogens” (priority 2003, published 2005).

The target of this experiment is T1, airway epithelial sodium currents (sodium channel) (UniProt A0A8I3MKE6+A0A8I3Q679+Q95165).
T1 sequence (A0A8I3MKE6 1-646): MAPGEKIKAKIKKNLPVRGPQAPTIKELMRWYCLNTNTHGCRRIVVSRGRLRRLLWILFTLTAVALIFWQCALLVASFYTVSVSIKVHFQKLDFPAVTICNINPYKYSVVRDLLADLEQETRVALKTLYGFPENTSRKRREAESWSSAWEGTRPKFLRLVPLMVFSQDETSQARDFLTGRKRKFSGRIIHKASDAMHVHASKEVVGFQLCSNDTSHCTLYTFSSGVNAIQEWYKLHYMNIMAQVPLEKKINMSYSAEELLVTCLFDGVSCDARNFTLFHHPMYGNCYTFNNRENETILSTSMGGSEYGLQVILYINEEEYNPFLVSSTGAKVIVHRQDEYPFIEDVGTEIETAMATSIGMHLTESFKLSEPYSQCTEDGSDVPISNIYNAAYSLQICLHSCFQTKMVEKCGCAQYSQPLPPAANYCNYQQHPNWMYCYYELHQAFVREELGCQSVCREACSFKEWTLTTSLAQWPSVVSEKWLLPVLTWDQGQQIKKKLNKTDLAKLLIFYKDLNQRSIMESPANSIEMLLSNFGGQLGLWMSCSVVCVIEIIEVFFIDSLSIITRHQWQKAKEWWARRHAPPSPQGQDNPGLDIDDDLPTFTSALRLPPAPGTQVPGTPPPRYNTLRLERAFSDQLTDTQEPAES
T1 sequence (A0A8I3Q679 1-649): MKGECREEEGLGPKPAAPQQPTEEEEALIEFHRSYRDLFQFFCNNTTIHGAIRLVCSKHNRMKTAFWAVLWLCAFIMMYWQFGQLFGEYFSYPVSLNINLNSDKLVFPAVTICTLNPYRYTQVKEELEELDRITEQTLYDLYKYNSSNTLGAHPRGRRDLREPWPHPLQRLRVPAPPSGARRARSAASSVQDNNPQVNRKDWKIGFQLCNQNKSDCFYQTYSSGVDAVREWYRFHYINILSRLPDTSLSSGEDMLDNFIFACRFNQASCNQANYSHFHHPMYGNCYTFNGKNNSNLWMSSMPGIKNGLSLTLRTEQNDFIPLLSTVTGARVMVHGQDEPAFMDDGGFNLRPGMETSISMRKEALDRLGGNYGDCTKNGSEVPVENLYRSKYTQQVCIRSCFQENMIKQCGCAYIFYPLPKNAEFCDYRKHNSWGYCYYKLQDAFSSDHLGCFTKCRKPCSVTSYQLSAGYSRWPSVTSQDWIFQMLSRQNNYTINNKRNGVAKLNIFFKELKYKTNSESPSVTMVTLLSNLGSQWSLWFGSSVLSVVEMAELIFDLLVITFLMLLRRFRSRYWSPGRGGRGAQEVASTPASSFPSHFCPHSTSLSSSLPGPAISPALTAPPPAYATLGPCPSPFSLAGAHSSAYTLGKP
T1 sequence (Q95165 1-641): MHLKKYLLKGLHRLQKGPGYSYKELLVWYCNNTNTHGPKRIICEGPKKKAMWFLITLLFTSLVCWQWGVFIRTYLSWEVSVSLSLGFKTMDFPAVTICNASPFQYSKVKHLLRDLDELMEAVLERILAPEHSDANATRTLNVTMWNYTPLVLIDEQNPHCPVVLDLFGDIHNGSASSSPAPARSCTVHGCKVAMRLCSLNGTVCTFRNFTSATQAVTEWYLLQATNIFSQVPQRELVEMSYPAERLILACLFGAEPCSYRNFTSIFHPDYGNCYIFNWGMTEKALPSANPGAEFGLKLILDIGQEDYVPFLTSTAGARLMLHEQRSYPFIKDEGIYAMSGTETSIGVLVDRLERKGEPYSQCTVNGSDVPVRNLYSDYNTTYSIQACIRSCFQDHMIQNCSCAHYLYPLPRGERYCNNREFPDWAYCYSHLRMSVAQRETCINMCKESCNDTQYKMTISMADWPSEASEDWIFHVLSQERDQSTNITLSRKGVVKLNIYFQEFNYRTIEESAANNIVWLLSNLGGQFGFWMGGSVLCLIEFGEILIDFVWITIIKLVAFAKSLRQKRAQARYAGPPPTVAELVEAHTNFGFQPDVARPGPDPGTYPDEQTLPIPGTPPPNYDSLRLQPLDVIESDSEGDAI
The experiment can be described thus: Sodium channel blocking activity: inhibition of short circuit current (ISC) in airway epithelial monolayers mounted in Ussing chambers. Conditions: for Fold Amiloride** (PSA 4022 = 100): relative potency for PSA 4022 = 100 using EC50 from PSA 4022 in same run; for EC50: mean ± spread. The class given is cell-based, human, dog, sheep or rodent. As for the experimental part: In Vitro Measure of Sodium Channel Blocking Activity and Reversibility
One assay used to assess mechanism of action and/or potency of the compounds of the present invention involves the determination of lumenal drug inhibition of airway epithelial sodium currents measured under short circuit current (ISC) using airway epithelial monolayers mounted in Ussing chambers. Cells obtained from freshly excised human, dog, sheep or rodent airways are seeded onto porous 0.4 micron Snapwell™ Inserts (CoStar), cultured at air-liquid interface (ALI) conditions in hormonally defined media, and assayed for sodium transport activity (ISC) while bathed in Krebs Bicarbonate Ringer (KBR) in Using chambers. All test drug additions are to the lumenal bath with half-log dose addition protocols (from 1×10^−11 M to 3×10^−5 M), and the cumulative change in ISC (inhibition) recorded. All drugs are prepared in dimethyl sulfoxide as stock solutions at a concentration of 1×10^−2 M and stored at −20° C. Eight preparations are typically run in parallel; two preparations per run incorporate amiloride and/or benzamil as positive controls. After the maximal concentration (5×10^−5 M) is administered, the lumenal bath is exchanged three times with fresh drug-free KBR solution, and the resultant ISC measured after each wash for approximately 5 minutes in duration. Reversibility is defined as the percent return to the baseline value for sodium current after the third wash. All data from the voltage clamps are collected via a computer interface and analyzed off-line.
Dose-effect relationships for all compounds are considered and analyzed by the Prism 3.0 program. IC50 values, maximal effective concentrations, and reversibility are calculated and compared to amiloride and benzamil as positive controls.

Where [1] appears, read: Selected Alaphatic Pyrazinoylguanidines (Formula II).
Where [2] appears, read: Selected Cyclic Pyrazinoylguanidines (Formula III).

As to `CN(C)C(=O)COc1ccc(CCCCNC(=N)NC(=O)c2nc(Cl)c(N)nc2N)cc1` [compound 16313, 2-(4-{4-[N-(3,5-diamino-6-chloropyrazine-2-carbonyl)guanidino]-butyl}phenoxy)-N,N-dimethylacetamide hydrochloride], the “Fold Amiloride** (PSA 4022 = 100)” value (Capped Pyrazinoylguanidines) is listed as 41 ± 7.
Still for that read-out and setting: then `N=C(NCCCCc1ccc(OCC(=O)NCC(N)=O)cc1)NC(=O)c1nc(Cl)c(N)nc1N` [compound 16314, N-carbamoylmethyl-2-(4-{4-[N′-(3,5-diamino-6-chloropyrazine-2-carbonyl)guanidino]butyl}phenoxy)acetamide], with 41 ± 6.
Still for that read-out and setting: the figure for `N=C(NCCCCc1ccc(OCC(=O)Nc2ncc[nH]2)cc1)NC(=O)c1nc(Cl)c(N)nc1N` [compound 16437, 2-(4-{4-[N′-(3,5-diamino-6-chloropyrazine-2-carbonyl)guanidino]-butyl}phenoxy)-N-(1H-imidazol-2-yl)acetamide dihydrochloride] is 77 ± 53.
Broadly, the EC50 is the concentration needed to bring the measured effect to its halfway point. Low values mean greater potency, high ones weaker potency. On to `N=C(NCCCCCCN)NC(=O)c1nc(Cl)c(N)nc1N` [compound 18706, N-(6-aminohexyl)-N′-(3,5-diamino-6-chloropyrazine-2-carbonyl)guanidine dihydrochloride], for which the “Fold Amiloride** (PSA 4022 = 100)” value (Alaphatic Pyrazinoylguanidines) was found to be 4 ± 1. This compound also showed an EC50 under setting [1] of 254 ± 118 nM.
Turning to `N=C(N)NCCCCCCCCCNC(=N)NC(=O)c1nc(Cl)c(N)nc1N` [compound 19006, N-{9-[N′-(3,5-diamino-6-chloropyrazine-2-carbonyl)guanidino]nonyl}guanidine dihydrochloride], for the setting “Alaphatic Pyrazinoylguanidines”, the “Fold Amiloride** (PSA 4022 = 100)” value is given as 11 ± 2. Under setting [1], this compound returned an EC50 of 60 ± 15 nM.
Take `N=C(N)NCCCCCCCNC(=N)NC(=O)c1nc(Cl)c(N)nc1N` [compound 19155, N-{7-[N′-(3,5-diamino-6-chloropyrazine-2-carbonyl)guanidino]heptyl}guanidine dihydrochloride]: for the setting “Alaphatic Pyrazinoylguanidines”, the “Fold Amiloride** (PSA 4022 = 100)” value came out at 8 ± 7. The compound further displayed an EC50 under setting [1] of 81 ± 45 nM.
With `N=C(NCCCCCCCCCN)NC(=O)c1nc(Cl)c(N)nc1N` [compound 19335, N-(9-aminononyl)-N′-(3,5-diamino-6-chloropyrazine-2-carbonyl)-guanidine dihydrochloride], the “Fold Amiloride** (PSA 4022 = 100)” value (Alaphatic Pyrazinoylguanidines) is on record as 19 ± 7.
For `N=C(NCCCCCCCCN)NC(=O)c1nc(Cl)c(N)nc1N` [compound 19336, N-(8-aminooctyl)-N′-(3,5-diamino-6-chloropyrazine-2-carbonyl)-guanidine dihydrochloride], where the note is “Alaphatic Pyrazinoylguanidines”, the “Fold Amiloride** (PSA 4022 = 100)” value is 12 ± 3. For the same compound, the EC50 under setting [1] was determined as 76 ± 18 nM.
On to `N=C(NCCCCCCCCCCN)NC(=O)c1nc(Cl)c(N)nc1N` [compound 19487, N-(10-aminodecyl)-N′-(3,5-diamino-6-chloropyrazine-2-carbonyl)-guanidine dihydrochloride], for which the “Fold Amiloride** (PSA 4022 = 100)” value (Alaphatic Pyrazinoylguanidines) is 37 ± 1. Under setting [1], this compound showed an EC50 of 25 ± 11 nM.
Taken in the same sequence, the figures for `N=C(N)NCCCCCCCCNC(=N)NC(=O)c1nc(Cl)c(N)nc1N` [compound 19604, N-{8-[N′-(3,5-diamino-6-chloropyrazine-2-carbonyl)guanidino]octyl}-guanidine dihydrochloride] were 63 ± 61 and 25 ± 27 nM.
As for `N=C(N)NCCCCCCCCCCNC(=N)NC(=O)c1nc(Cl)c(N)nc1N` [compound 23608, N-{10-[N′-(3,5-diamino-6-chloropyrazine-2-carbonyl)guanidino]-decyl}guanidine dihydrochloride], under “Alaphatic Pyrazinoylguanidines”, the “Fold Amiloride** (PSA 4022 = 100)” value turned out to be 41 ± 29. Further, under setting [1], a half-maximal effect (EC50) was put at 17 ± 8 nM.
The matching figures for `N=C(NCCCCCCCCCCCCN)NC(=O)c1nc(Cl)c(N)nc1N` [compound 23609, N-(12-aminododecyl)-N′-(3,5-diamino-6-chloropyrazine-2-carbonyl)-guanidine dihydrochloride]: 66 ± 36 and 13 ± 7 nM.
Taken in the same sequence, the figures for `N=C(NCCCCCCCCCCCN)NC(=O)c1nc(Cl)c(N)nc1N` [compound 23682, N-(11-aminoundecyl)-N′-(3,5-diamino-6-chloropyrazine-2-carbonyl)guanidine dihydrochloride] were 51 ± 15 and 12 ± 3 nM.
Consider `N=C(N)NCCCCCCCCCCCCNC(=N)NC(=O)c1nc(Cl)c(N)nc1N` [compound 23683, N-{12-[N′-(3,5-diamino-6-chloropyrazine-2-carbonyl)guanidino]dodecyl)guanidine dihydrochloride], for which the “Fold Amiloride** (PSA 4022 = 100)” value (Alaphatic Pyrazinoylguanidines) turned out to be 68 ± 48. The compound also registered an EC50 under setting [1] of 41 ± 68 nM.
Taken in the same sequence, the figures for `N=C(N)NCCCCCCCCCCCNC(=N)NC(=O)c1nc(Cl)c(N)nc1N` [compound 23991, N-{11-[N′-(3,5-diamino-6-chloropyrazine-2-carbonyl)guanidino]-undecyl}guanidine dihydrochloride] were 20 ± 12 and 64 ± 77 nM.
On to `N=C(NCCCCc1ccc(C[C@@H](N)CC(=O)O)cc1)NC(=O)c1nc(Cl)c(N)nc1N` [compound 24407], for which the “Fold Amiloride** (PSA 4022 = 100)” value (Capped Pyrazinoylguanidines) is 23 ± 4.
`N=C(NCCCCC1CCN(CCO)CC1)NC(=O)c1nc(Cl)c(N)nc1N` [compound 25193, N-(3,5-diamino-6-chloropyrazine-2-carbonyl)-N′-{4-[1-(2-hydroxyethyl)piperidin-4-yl]butyl}guanidine dihydrochloride]: the “Fold Amiloride** (PSA 4022 = 100)” value (Cyclic Pyrazinoylguanidines) turned out to be 8 ± 3. The half-maximal effective concentration (EC50) under setting [2] turned out to be 99 ± 14 nM.
Regarding `N=C(NCCCCC1CCN(CCCO)CC1)NC(=O)c1nc(Cl)c(N)nc1N` [compound 25310, N-(3,5-Diamino-6-chloropyrazine-2-carbonyl)-N′-{4-[1-(3-hydroxypropyl)piperidin-4-yl]butyl}guanidine dihydrochloride], the “Fold Amiloride** (PSA 4022 = 100)” value (Cyclic Pyrazinoylguanidines) is given as 5 ± 2. Besides, the response under setting [2] was half-maximal at 169 ± 47 nM (EC50).
